{
  "source": "patent US9446092B2",
  "about": "“Use of a neurofilament peptide for the treatment of glioma” (UNIVERSITE D'ANGERS, priority 2009, dated 2016)",
  "key": {"[1]": {"tested_on": "primary human glioblastoma cells", "assay": "MTS assay on primary glioblastoma cells isolated after surgery", "format": "cell-based", "details": "40 nM, 72 h", "procedure": "Primary human glioblastoma cells obtained from tissue samples extracted in human brains during surgery are put in culture in a DMEM medium containing glucose, L-glutamine, 10% fetal calf serum, […] (Sigma). Cells were plated (20 000 cells per cm^2) in MW96 and let grow at 37° C. in a humidified incubator gassed with 5% CO2. The peptides and/or drugs are added 48 hours after their plating.\n(§1) The effects of peptides on the proliferation of glioma cells or astrocytes were evaluated by the MTS cytotoxicity assay and by counting directly the number of cells. For the MTS assay (Promega), 500 cells were seeded in 96-well plates, incubated at 37° C. for 24 hours, and treated by the peptide at the indicated concentrations for 24, 48 and 72 hours, or with vehicle (PBS or water). Media and peptides were replaced daily. Peptides were prepared in DMEM, and paclitaxel was dissolved in DMSO at a concentration of 2 mM and further diluted into DMEM. Viability was also determined by trypan blue staining. For manual counts, cells were treated with 0.25% trypsin/0.53 mM EDTA, centrifuged, and counted with a hemacytometer following addition of trypan blue dye. At each time, 3 to 6 wells per treatment were counted."}, "9L glioma cells [2]": {"tested_on": "9L glioma cells", "assay": "Immunocytochemistry: peptide penetration and microtubule network", "format": "cell-based, rat", "details": "10 μM, 6 h", "procedure": "(§2) Cells were plated on coverslips and cultured in media containing biotinylated peptides (10 μM) for 6 hours. Following PBS washing, the cells were fixed for 10 min in 4% paraformaldehyde, and washed 3 times in PBS. They were then incubated for 10 min in a 0.5% triton X-100 permeabilization solution, washed 3 times in PBS before incubation in a blocking solution (5% BSA) for 15 min. Glioma cells and astrocytes were incubated overnight at 4° C. with mouse anti-B-tubulin antibody (Sigma) 1/200, and neurons with mouse anti-Bill-tubulin antibody 1/200. Tubulin and biotinylated peptides were localized using respectively Alexa 568 nm anti-mouse antibody and streptavidin Alexa 488 nm (Molecular Probes) 1/200 for 1 hour, followed by washing in PBS. The preparations were counterstained with 3 μM 4′6-diaminido-2-phenylindole (DAPI; Sigma) for 5 min, and washed twice with PBS. Coverslips were mounted with an antifading solution.\n(§3) Observations were carried out with an Olympus confocal microscope (BX50) using Fluoview.3.1. Software or a Leica DMI6000 inverted microscope. Images were acquired with a CoolSNAP-HQ2 camera and analyzed with Metamorph 7.1.7.0. software. Cells that are positive for peptide staining and cells with destroyed microtubule network were counted. Experiments on each cell type were repeated at least three times, and minimums of 200 cells were analyzed for each experiment."}, "F98 glioma cells [3]": {"tested_on": "F98 glioma cells", "assay": "Immunocytochemistry: peptide penetration and microtubule network", "format": "cell-based, rat", "details": "10 μM, 6 h", "procedure": "as §2, §3"}, "rat primary astrocytes": {"tested_on": "rat primary astrocytes", "assay": "Immunocytochemistry: peptide penetration and microtubule network", "format": "cell-based", "details": "10 μM, 6 h", "procedure": "Rat primary astrocytes were obtained from cultures of cerebral cortex as originally described (McCarthy and de Vellis, 1980). Briefly, the cerebral cortex was dissected from newborn rats and cells were recovered after tissue homogenization, trypsination, and centrifugation. They were grown during 3 weeks in DMEM media with glucose and L-glutamine (Lonza France), containing 10% fetal calf serum (Lonza France), 1% penicillin/streptomycin (Sigma) in humidified incubator gassed with 5% CO2 (37° C.).\nCells were plated on coverslips and cultured in media containing biotinylated peptides (10 μM) for 6 hours. Following PBS washing, the cells were fixed for 10 min in 4% paraformaldehyde, and washed 3 times in PBS. They were then incubated for 10 min in a 0.5% triton X-100 permeabilization solution, washed 3 times in PBS before incubation in a blocking solution (5% BSA) for 15 min. […]\nas §3, with “Software or a Leica DMI6000 inverted microscope.” left out"}, "rat neurons": {"tested_on": "rat neurons", "assay": "Immunocytochemistry: peptide penetration and microtubule network", "format": "cell-based", "details": "10 μM, 6 h", "procedure": "Hippocampal neuronal cultures were prepared from newborn rat brains according to Ray et al. 1993 and Kaech and Banker 2006. Briefly, the hippocampi of animals younger than 2 days were recovered, minced and digested in 0.01% trypsin for one hour at 37° C. Dissociated cells were plated on coverslips precoated with 5 μg/ml poly-1-lysine and 7 μg/ml collagen at densities of 2×10^5/ml and incubated at 37° C. with a 5% CO2 atmosphere. Twenty-four hours later, the plating solution was replaced by B-27 neurobasal medium, and the second day cytosine arabinoside (20 μM) was added to eliminate non-neural cells. Experiments were performed 7 days after plating.\nCells were plated on coverslips and cultured in media containing biotinylated peptides (10 μM) for 6 hours. Following PBS washing, the cells were fixed for 10 min in 4% paraformaldehyde, and washed 3 times in PBS. […]\nas §3, with “Software or a Leica DMI6000 inverted microscope.” left out"}, "glioma cells": {"tested_on": "glioma cells", "assay": "Peptide uptake by glioma cells: temperature/energy dependence and sequence specificity", "format": "cell-based", "procedure": "To evaluate the internalization of fluorescein-labeled NFL-TBS40-63 peptide by FACS, glioma cells or astrocytes were seeded in 35 mm dishes and cultured for 1 hour at 37° C. in media containing fluorescein-labeled NFL-TBS40-63 peptide at increasing concentrations or with vehicle (PBS). Cells were trypsinized, washed twice in cold PBS before incubation with trypsin (1 mg/mL) during 15 min at 37° C. To investigate a possible energy-dependant mechanism for the uptake of the peptide, cells were incubated at 4° C. with 20 μM fluorescein-labeled NFL-TBS2 peptide (after 15 min of 4° C. preincubation), or with 10 mM sodium azide in the presence of 6 mM 2-deoxy-D-glucose for 1 hour to deplete cellular ATP before addition of 20 μM fluorescence-labeled NFL-TBS2 peptide. Cells were then washed once, resuspended in 500 μl containing 50 μg/mL propidium iodide (Sigma, Saint-Quentin Fallavier, France), and analyzed with FACScalibur flow cytometer. Experiment on each cell type was repeated three times. 20,000 events per sample were analyzed in each experiment."}, "9L cells [4]": {"tested_on": "9L cells", "assay": "BrdU incorporation (cell proliferation)", "format": "cell-based, rat", "details": "100 μM, 72 hours", "procedure": "(§4) To assess cell proliferation, 5-bromodeoxyuridine (BrdU) immunohistochemistry was used. Cells were platted on coverslips and cultured in media containing biotinylated peptides (100 μM) for 72 hours, and incubated during 4 hours in the presence of 1 mg/mL BrdU (Sigma). Cells were then washed in PBS, fixed in 3% paraformaldehyde for 10 min and permeabilized with 1% Triton X-100 in PBS for 10 min. Cells were acidified to denature the DNA (2 N HCl, 10 min), neutralized (0.1 M sodium borate, 10 min) and then rinsed extensively in PBS. After blocking with 10% NGS (10 min) the cells were labeled with monoclonal anti-BrdU antibody (1/400) followed by Alexa 568 nm anti-mouse antibody (1/200). Nuclei were stained with 4′6-diaminido-2-phenylindole (DAPI; Sigma). […] Images were acquired with a CoolSNAP HQ2 camera and analyzed with Metamorph 7.1.7.0. software. Minimums of 200 cells were scored for BrdU incorporation, and experiments were repeated at least three times."}, "F98 cells [5]": {"tested_on": "F98 cells", "assay": "BrdU incorporation (cell proliferation)", "format": "cell-based, rat", "details": "100 μM, 72 hours", "procedure": "as §4"}, "rat astrocytes": {"tested_on": "rat astrocytes", "assay": "BrdU incorporation (cell proliferation)", "format": "cell-based", "details": "100 μM, 72 hours", "procedure": "as §4"}, "9L cells [6]": {"tested_on": "9L cells", "assay": "Cell death analysis by flow cytometry (Annexin V / PI)", "format": "cell-based, rat", "details": "100 μM, 72 hours, Annexin V/PI FACS", "procedure": "(§5) To detect possible apoptotic processes, cells were seeded in 35 mm dishes and cultured in media containing biotinylated peptides (100 μM) or PBS alone for 72 hours. Paclitaxel (40 nM) was used as a positive control to induce apoptosis (Terzis et al., 1997). Cells were then trypsinized, washed in cold PBS, and stained with Annexin V-FITC (BD Pharmingen) in Annexin buffer for 15 min at room temperature. Finally, they were counterstained with 50 μg/mL propidium iodide (Sigma) and analyzed with a FACSCalibur flow cytometer. Experiment on each cell type was repeated three times. 20,000 events per sample were analyzed in each experiment."}, "F98 cells [7]": {"tested_on": "F98 cells", "assay": "Cell death analysis by flow cytometry (Annexin V / PI)", "format": "cell-based, rat", "details": "100 μM, 72 hours, Annexin V/PI FACS", "procedure": "as §5"}, "primary astrocytes": {"tested_on": "primary astrocytes", "assay": "Cell death analysis by flow cytometry (Annexin V / PI)", "format": "cell-based, rat", "details": "100 μM, 72 hours, Annexin V/PI FACS", "procedure": "as §5"}, "9L glioma cells [8]": {"tested_on": "9L glioma cells", "assay": "MTS cytotoxicity assay", "format": "cell-based, rat", "details": "100 μM, 72 hours", "procedure": "as §1"}, "F98 glioma cells [9]": {"tested_on": "F98 glioma cells", "assay": "MTS cytotoxicity assay", "format": "cell-based, rat", "details": "100 μM, 72 hours", "procedure": "as §1"}, "[10]": {"assay": "Non tumor-bearing (control) rats, intracerebral peptide injection", "format": "in vivo, rat"}},
  "note": "Ends that are not written are not given here.",
  "data": [
    {"compound": "CC(=O)O[C@H]1C(=O)[C@@]2(C)[C@H]([C@H](OC(=O)c3ccccc3)[C@]3(O)C[C@H](OC(=O)[C@H](O)[C@@H](NC(=O)c4ccccc4)c4ccccc4)C(C)=C1C3(C)C)[C@]1(OC(C)=O)CO[C@@H]1C[C@@H]2O", "note": "[taxol, paclitaxel]", "values": [
      {"measurement": "cell survival compared with NFL-TBS40-63 peptide (MTS)", "setting": "[1]", "result": "at the same level"}
    ]},
    {"compound": "NFL-SCR: similarly labeled scrambled peptide, control scrambled sequence of NFL-TBS40-63 (SLGSPSSSVRASYSSSRSYVYSSS; also: N-terminal label (biotin or carboxyfluorescein), not given here for this peptide)", "values": [
      {"measurement": "total cells with altered microtubule network (spherical shape, aggregated tubulin)", "setting": "9L glioma cells [2]", "result": "didn't alter the microtubule network"},
      {"measurement": "total cells with altered microtubule network (spherical shape, aggregated tubulin)", "setting": "F98 glioma cells [3]", "result": "didn't alter the microtubule network"},
      {"measurement": "cells with altered microtubule network", "setting": "rat primary astrocytes", "result": "didn't alter the microtubule network"},
      {"measurement": "cells with altered microtubule network", "setting": "rat neurons", "result": "didn't alter the microtubule network"},
      {"measurement": "internalization into glioma cells", "setting": "glioma cells", "result": "absence of internalization"},
      {"measurement": "inhibition of BrdU incorporation", "setting": "9L cells [4]", "result": "has no effect"},
      {"measurement": "inhibition of BrdU incorporation", "setting": "F98 cells [5]", "result": "has no effect"},
      {"measurement": "effect on proliferation (BrdU incorporation)", "setting": "rat astrocytes", "result": "has no effect"},
      {"measurement": "apoptotic response", "setting": "9L cells [6]", "result": "has no effect"},
      {"measurement": "apoptotic response", "setting": "F98 cells [7]", "result": "has no effect"},
      {"measurement": "apoptotic response", "setting": "primary astrocytes", "result": "has no effect"}
    ]},
    {"compound": "YSSYSAPVSSSLSVRRSYSSSSGS [NFL-TBS40-63]", "values": [
      {"measurement": "reduction of cell viability (MTS)", "setting": "9L glioma cells [8]", "result": "30.0%±4.4"},
      {"measurement": "reduction of cell viability (MTS)", "setting": "F98 glioma cells [9]", "result": "60.8%±2.8"},
      {"measurement": "cellular defects in normal brain", "setting": "[10]; injected in normal brain", "result": "no major cellular defects"},
      {"measurement": "clinical signs of distress (weight loss, hunched posture)", "setting": "[10]; non tumor-bearing rats treated with the peptide", "result": "no clinical signs of distress"},
      {"measurement": "elimination of the peptide from normal brain", "setting": "[10]; same procedure, days 16, 24 or 30", "result": "rapidly eliminated and was not detectable at these time points"}
    ]}
  ]
}
